The values that follow come from US20260034153A1, “Cerebral Blood Flow Augmenter, Brain Activity Promoter, and Vigilance Improver” (Mitsui DM Sugar Co., Ltd., priority 2022, published 2026).

The structures appear in SMILES notation.

Data set [1] deals with healthy men and women. Description: Subjective questionnaire survey (VAS method) after the task. The class given is in vivo, human. The conditions noted are these: questionnaire at 3rd to 5th block; compared to glucose control group.
Experimental: As the subjects, 64 healthy men and women of 20 to 60 years old were employed. The effects of intake of isomaltulose on cerebral blood flow and brain activity were evaluated based on measurement of the response time to a cognitive task (Digit vigilance task (DVT)) and change of the cerebral blood flow in accordance with the following test. Test methods are more specifically shown below. In the test, each block including the steps shown in Table 1 was performed in one hour, and the 1st block to the 5th block were continuously performed on the same day. […] Before the start of the 2nd DVT, an aqueous solution prepared by dissolving 10.0 g of isomaltulose in 100 mL of water was given as a test food. After the completion of DVT and before the next DVT, the Uchida Kraepelin test was performed. The Uchida Kraepelin test is a test of adjacent single-digit addition. In this Example, the test was performed in order to apply a load such as fatigue to the subject in order to control the break time. First, “Last night, did you sleep better than usual?” was asked. After DVT or Uchida Kraepelin test, the survey for asking subjectivity of the subjects was conducted as to “How are you feeling right now?”, “Are you feeling tired right now?”, “Are you feeling irritated right now?”, “Are you feeling sleepy right now?”, and “Did you work diligently on the task until the end?”. […]
For data set [2] the following is noted: fraction of the hydrolysis rate of sucrose; cited from earlier work.
In data set [3] the test system is healthy men and women. The data set can be described thus: Digit vigilance task (DVT) response time after intake of test food, crossover test. Format: in vivo, human. The conditions noted are these: 10.0 g in 100 mL water taken orally before 2nd DVT; 5 DVTs, one per hour; 64 subjects; FIG. 1. As to the method: As the subjects, 64 healthy men and women of 20 to 60 years old were employed. The effects of intake of isomaltulose on cerebral blood flow and brain activity were evaluated based on measurement of the response time to a cognitive task (Digit vigilance task (DVT)) and change of the cerebral blood flow in accordance with the following test. Test methods are more specifically shown below. In the test, each block including the steps shown in Table 1 was performed in one hour, and the 1st block to the 5th block were continuously performed on the same day. […] Before the start of the 2nd DVT, an aqueous solution prepared by dissolving 10.0 g of isomaltulose in 100 mL of water was given as a test food. After the completion of DVT and before the next DVT, the Uchida Kraepelin test was performed. The Uchida Kraepelin test is a test of adjacent single-digit addition. In this Example, the test was performed in order to apply a load such as fatigue to the subject in order to control the break time. DVT is a task mainly used for measuring the vigilance (Non Patent Literature 1 (Joel S. Warm et al., Vigilance requires hard mental work and is stressful, Human Factors, Vol. 50 (3), pp. 433-41, 2008)). […] The time from display of the number or character to the subject's response is measured. […]

In data set [4] the test system is healthy men and women. Description: Change in cerebral blood flow in the dorsal lateral prefrontal area during DVT, measured by fNIRS (HOT-2000). The conditions noted are these: throughout 5 DVTs, compared to glucose intake group, FIGS. 2 and 3. Format: in vivo, human.
Experimental: The subjects mentioned above were instructed to take a test diet containing glucose instead of isomaltulose on another day and the same test was performed (crossover test). They constituted a control group.
Using a brain activity measuring apparatus (HOT-2000, manufactured by NeU Corporation) based on fNIRS (near-Infrared spectroscopy), a change in cerebral blood flow in the dorsal lateral prefrontal area was measured during DVT. According to this apparatus, a change in hemoglobin concentration in blood can be detected by irradiation with near-infrared light, with the result that a change in cerebral blood flow in an active area of the brain can be measured.

In the case of `O=C(CO)[C@@H](O)[C@H](O)[C@H](O)CO[C@H]1O[C@H](CO)[C@@H](O)[C@H](O)[C@H]1O` [isomaltulose, 6-O-α-D-glucopyranosyl-D-fructose], the “answer to question "have you dealt with the task diligently to the end?"” value in the data set with healthy men and women [1] is “dealt with the task diligently”. In addition, the “hydrolysis rate relative to sucrose” value in data set [2] is on record as “⅕”. In addition, the “response time in DVT (change of average response time relative to 1st DVT)” value in the data set on healthy men and women [3] was “less likely to increase”. In the data set with healthy men and women [4], the “change in cerebral blood flow during DVT (average 0 to 120 seconds)” value is “significantly large”.
